Values belong to the compound of their own block, whether it stands above or below them.
Experiments:
[1] = system: infliximab; assay: Thermal stability at 50° C. with caffeine and excipients, SE-HPLC (Example 63); format: physicochemical; details: excipient 0.5 M, caffeine 50 mM, infliximab 10 mg/mL, 5 mM phosphate pH 7.5, 50° C., 180 min
Description: Therapeutic proteins stress leads to aggregation of the protein and a decrease in the active native species. […] The aliquots were withdrawn at 0 min, 90 min and 180 min. […] Diode array detector.

[2] = system: bovine gamma globulin (BGG); assay: Normalized viscosity of BGG with caffeine and a secondary excipient (Example 40); format: physicochemical; details: BGG about 280 mg/mL, 20 mM histidine pH 6, 25° C.
[3] = system: omalizumab; assay: Freeze-thaw stability, light scattering at 350 nm (Example 48); format: physicochemical; details: excipient 5 mg/mL, omalizumab 5 mg/mL, 20 mM histidine pH 6.0, at least 5 freeze (−80° C.)/thaw cycles
[4] = system: ustekinumab; assay: Stabilization at low pH, Sypro orange fluorescence (Example 45); details: excipient 5 mg/mL, ustekinumab 1 mg/mL, glycine acidification buffer pH 2.6, Sypro orange fluorescence
[5] = system: omalizumab; assay: Freeze/thaw stress (6 cycles), monomer by SE-HPLC (Example 57); format: physicochemical; details: excipient 100 mM, omalizumab 2 mg/mL, 20 mM Histidine pH 6.0, freeze (−80° C.)/thaw
Description: Therapeutic proteins are frequently kept at low temperatures to improve their kinetic stability and minimize structural perturbations that could lead to the aggregation of the protein and a decrease in the active native species. In certain cases, this might be done by freezing the formulation until use. However, the low temperatures, concentration gradients, and ice formation during repeated freezing and thawing can stress the protein. […] The formulations were then aliquoted into 0.5 mL cryovials and frozen at −80° C. for 120 min. The samples were then thawed using a water bath kept at room temperature.

[6] = Caffeine solubility with co-solutes during refrigerated storage (Example 61); format: physicochemical; set-up: key: (PPT)—precipitate observed; (—)—clear solution observed; details: 50 mM co-solute, 25 mM histidine pH 6, stored 2 to 5° C.
Description: The resulting microplates were then sealed with microplate tape and stored in a refrigerator with the temperature maintained in the range of 2 to 5° C. Over the course of storage, the microplates were visually observed for evidence of precipitate in the well.

[7] = system: ustekinumab; assay: Urea denaturation, Sypro orange fluorescence (Example 44); format: physicochemical; details: excipient 5 mg/mL, ustekinumab 1 mg/mL, 6M urea, 20 mM histidine pH 6.0, Sypro orange fluorescence
Source text: It is known that urea denatures proteins in solution and causes them to unfold. The screening methodology in this example involved adding a specific concentration of urea to a therapeutic protein solution such as ustekinumab. […] One method to track protein unfolding involves the use of extrinsic fluorescent dyes such as Sypro orange. Sypro orange binds to hydrophobic regions in the unfolded protein structure, leading to an increase in the fluorescence signal observed. Measuring the differences in the fluorescence intensity of unfolded protein-Sypro orange complex in presence of different excipients thus allows one to identify any stabilizing effects.
All excipients used in this Example, listed in Table 45 below, were of the highest purity, and were obtained from Sigma Aldrich (St. Louis, MO) or Cayman Chemical (Ann Arbor, MI). […] This urea stock solution was then added to a final concentration of 6M to produce the test solutions (excipient plus protein plus urea). […] The pH of the mixture was rechecked and confirmed to be at pH 6.0. The test solutions were allowed to incubate at room temperature for 30 min.

[8] = Excipient A caffeine 15 mg/mL + Excipient B 15 mg/mL
[9] = Excipient A caffeine 15 mg/mL + Excipient B 20 mg/mL

Compound: O=C1O[C@H]([C@@H](O)CO)C(O)=C1O[C@H]1O[C@H](CO)[C@@H](O)[C@H](O)[C@H]1O [Ascorbyl glucoside]
% change compared to control [1]: 45.8%

Compound: O.O.[Ca+2].[Cl-].[Cl-] [CaCl2 dihydrate]
Normalized Viscosity [2, 8]: 0.65

Compound: O=C(O)CN(CCN(CC(=O)O)CC(=O)O)CCN(CC(=O)O)CC(=O)O [DTPA]
% reduction in light scattering at 350 nm vs. control [3]: 17.2%

Compound: CS(C)(=O)=O [Dimethyl sulfone, dimethyl sulfone]
Normalized Viscosity ([2]; Excipient A caffeine 15 mg/mL + Excipient B 25 mg/mL): 0.65

Compound: CCO [Ethanol]
Normalized Viscosity ([2]; Excipient A caffeine 15 mg/mL + Excipient B 22 mg/mL): 0.65

Compound: O=C(O)[C@@H]1C[C@@H](O)CN1 [Hydroxyproline]
% change compared to control [1]: 67.3%

Compound: OC[C@H](O)[C@@H](O)[C@H](O)[C@@H](O)CO [Iditol]
% change in stability [4]: 11.6%
% reduction in light scattering at 350 nm vs. control [3]: 11.7%

Compound: O[C@H]1[C@H](O)[C@@H](O)[C@H](O)[C@@H](O)[C@H]1O [Inositol]
% change compared to control [1]: 58.9%

Compound: NC(=O)c1ccncc1 [Isonicotinamide]
% change in stability [4]: 65.4%
% reduction in light scattering at 350 nm vs. control [3]: 4.8%

Compound: CC(C)C[C@H](N)C(=O)O [Leucine]
Normalized Viscosity [2, 9]: 0.69

Compound: OC[C@H]1O[C@@](CO)(O[C@H]2O[C@H](CO)[C@@H](O)[C@H](O)[C@H]2O)[C@@H](O[C@H]2O[C@H](CO)[C@@H](O)[C@H](O)[C@H]2O)[C@@H]1O [Melezitose]
% reduction in light scattering at 350 nm vs. control [3]: 7.4%

Compound: CC(=O)[O-].[Na+] [Sodium acetate]
Normalized Viscosity ([2]; Excipient A caffeine 15 mg/mL + Excipient B 12 mg/mL): 0.77

Compound: C[N+](C)(C)[O-] [Trimethyl amine N-oxide]
% change compared to control [1]: 10.9%

Compound: O=C(CO)[C@@H](O)[C@H](O)[C@H](O)[C@H](O)CO [seduheptalose]
% reduction in light scattering at 350 nm vs. control [3]: 16.0%

Now from value to compound:

% change compared to control [1]: 9.65%
Compound: OC[C@H]1O[C@H](O[C@H]2[C@H](O)[C@@H](O)C(O)O[C@@H]2CO)[C@H](O)[C@@H](O)[C@@H]1O (mixture of isomers) [Maltose]

% reduction in light scattering at 350 nm vs. control [3]: 17.8%
Compound: OC[C@@H](O)[C@@H](O)[C@H](O)[C@H](O)CO [Mannitol]

% change in stability [4]: 41.8%
% reduction in light scattering at 350 nm vs. control [3]: 15.3%
Compound: CNC[C@H](O)[C@@H](O)[C@H](O)[C@H](O)CO [Meglumine]

% increase in monomer content vs. control [5]: 6.63%
Compound: CC(=O)N[C@@H]1C(O)O[C@H](CO)[C@@H](O)[C@@H]1O (stereo partly shown) [N-acetyl mannosamine]

Normalized Viscosity [2, 8]: 0.63
Compound: NC(=O)c1cccnc1 [Niacinamide]

Normalized Viscosity [2, 9]: 0.60
Day 1 (visual observation for precipitate) ([6]; caffeine 7.5 mg/mL): —
Day 7 (visual observation for precipitate) ([6]; caffeine 7.5 mg/mL): —
Day 18 (visual observation for precipitate) ([6]; caffeine 7.5 mg/mL): —
Day 27 (visual observation for precipitate) ([6]; caffeine 7.5 mg/mL): —
Day 56 (visual observation for precipitate) ([6]; caffeine 7.5 mg/mL): —
Day 1 (visual observation for precipitate) ([6]; caffeine 10 mg/mL): —
Day 7 (visual observation for precipitate) ([6]; caffeine 10 mg/mL): —
Day 18 (visual observation for precipitate) ([6]; caffeine 10 mg/mL): —
Day 27 (visual observation for precipitate) ([6]; caffeine 10 mg/mL): —
Day 56 (visual observation for precipitate) ([6]; caffeine 10 mg/mL): —
Day 1 (visual observation for precipitate) ([6]; caffeine 12.5 mg/mL): —
Day 7 (visual observation for precipitate) ([6]; caffeine 12.5 mg/mL): —
Day 18 (visual observation for precipitate) ([6]; caffeine 12.5 mg/mL): —
Day 27 (visual observation for precipitate) ([6]; caffeine 12.5 mg/mL): —
Day 56 (visual observation for precipitate) ([6]; caffeine 12.5 mg/mL): —
Day 1 (visual observation for precipitate) ([6]; caffeine 15 mg/mL): —
Day 7 (visual observation for precipitate) ([6]; caffeine 15 mg/mL): —
Day 18 (visual observation for precipitate) ([6]; caffeine 15 mg/mL): —
Day 27 (visual observation for precipitate) ([6]; caffeine 15 mg/mL): —
Day 56 (visual observation for precipitate) ([6]; caffeine 15 mg/mL): PPT
Day 1 (visual observation for precipitate) ([6]; caffeine 20 mg/mL): —
Day 7 (visual observation for precipitate) ([6]; caffeine 20 mg/mL): PPT
Day 18 (visual observation for precipitate) ([6]; caffeine 20 mg/mL): PPT
Day 27 (visual observation for precipitate) ([6]; caffeine 20 mg/mL): PPT
Day 56 (visual observation for precipitate) ([6]; caffeine 20 mg/mL): PPT
Compound: N[C@@H](Cc1ccccc1)C(=O)O [Phenylalanine]

% change in stability [4]: 1.1%
% reduction in light scattering at 350 nm vs. control [3]: 15.3%
Compound: O=C(CO)[C@H](O)[C@H](O)[C@H](O)CO [Psicose]

% increased stability [7]: 1.7%
% change in stability [4]: 2.6%
% reduction in light scattering at 350 nm vs. control [3]: 3.7%
Compound: OC[C@H]1O[C@H](OC[C@H]2O[C@H](O[C@]3(CO)O[C@H](CO)[C@@H](O)[C@@H]3O)[C@H](O)[C@@H](O)[C@@H]2O)[C@H](O)[C@@H](O)[C@H]1O [Raffinose]

% change compared to control [1]: 46.2%
Compound: O=P(O)(O)C(O)(Cc1cccnc1)P(=O)(O)O [Risedronate]

% increased stability [7]: 6.3%
% change in stability [4]: 0.4%
% reduction in light scattering at 350 nm vs. control [3]: 10.7%
Compound: OC[C@@H](O)[C@H](O)[C@@H](O)CO [Xylitol]

% change compared to control [1]: 12.6%
Compound: Maltotriose
